The record followed here is paper PMC4995692, “An assay to measure poly(ADP ribose) glycohydrolase (PARG) activity in cells” (F1000Research, 2016).

“Also recorded” adds a separate entry of the source.

One assay relates to H1048 cells. Description: SRB assay, MMS sensitivity of H1048. Format: cell-based. Conditions: Homo sapiens, NCI-H1048, 72 h. Here is the method: (§1) Cells in 96-well plates were fixed with the addition of 100 µL ice cold 10% trichloroacetic acid to the media. After 1 h at 4°C, the cells were washed twice with PBS and left to dry. Once dry, 100 µL 0.2% sulforhodamine B (SRB) was add to each well and incubated for 15 min at room temperature. The cells were washed three times with 200 µL 1% acetic acid and then dried. To solubilise the remaining SRB, 200 µL 10 mM Tris pH10.5 was added to each well and the plate incubated with agitation for 10 min. Absorbance at 520 nm was measured on a plate reader (Biotek, Swindon, UK).
A general note: The SRB assay estimates cell density from bound dye.

Assay [1] concerns nuclear PAR chains in Hela cells. Format: cell-based, human. Conditions: 250 µg/mL MMS. As to the method:
Exponentially growing HeLa cells were trypsinized and resuspended in complete media before being filtered through a […] cell strainer (#352340, BD Falcon, Oxford, UK). Cells were then counted using a Muse cell counter (Merck Millipore, Hertfordshire, UK) and seeded in 30 µL of media at 4×10 ^4 cells/mL in Greiner 384-well plates (#781091, Greiner Bio-One, Stonehouse, UK) and placed in a cell culture incubator. After 16–24 h the plates were centrifuged briefly at 164× g and the cells dosed with compound(s) or vehicle (DMSO) control using an Echo 550 (Labcyte, Dublin, Ireland). […] After 1 h the plate was re-spun and cells co-dosed with different concentrations of MMS (50–250 µg/mL final concentration) or DMSO using the Echo 550 and incubated for a given time (30 min–2 h) at 37°C in a cell culture incubator. […] Following three washes with PBS, the plates were sealed and images captured using a 10× objective on a CellInsight (ThermoFisher) and analysed using Cellomics Scan compartmental analysis software (ThermoFisher). A threshold determined by assessing the signal in DMSO treated cells was applied to the pixel intensity and a Box Detection application was used to detect objects smaller than five pixels in radius within the nucleus. […]

Another assay concerns SW620 cells. Put plainly: SW620 proliferation after MMS (Hoechst stain). Format: cell-based, human. The settings on record: MMS 72 h.
A further assay has as its system control Hela cells. Description: Growth inhibition by MMS in control Hela cells. Conditions: Homo sapiens, 120 h, 5 days. The format is cell-based.
The subject of assay [2] is PAR chains in PARG KD cells. Description: PAR chain detection after MMS, preliminary western blot. Format: cell-based, human. Conditions: 250 µg/mL MMS. (In general: Immunoblotting shows a protein as a band on a membrane.)
Assay [3] deals with Murine embryonic fibroblasts (MEFs). Description: SRB assay, MMS sensitivity of MEFs. Format: cell-based. The settings on record: Mus musculus, Fibroblast, 72 h. Here is the method: as §1
Assay [4] concerns PARG KD Hela cells (PARG Silencix). Put plainly: Growth inhibition by MMS in PARG KD Hela cells. The format is cell-based. The settings on record: Homo sapiens, 120 h, 5 days.
The target in the next assay is PARG (Homo sapiens, UniProt Q86W56). Put plainly: PAR chain assay in SW620 cells with temozolomide. The format is cell-based.
Sequence of PARG (Q86W56 whole entry): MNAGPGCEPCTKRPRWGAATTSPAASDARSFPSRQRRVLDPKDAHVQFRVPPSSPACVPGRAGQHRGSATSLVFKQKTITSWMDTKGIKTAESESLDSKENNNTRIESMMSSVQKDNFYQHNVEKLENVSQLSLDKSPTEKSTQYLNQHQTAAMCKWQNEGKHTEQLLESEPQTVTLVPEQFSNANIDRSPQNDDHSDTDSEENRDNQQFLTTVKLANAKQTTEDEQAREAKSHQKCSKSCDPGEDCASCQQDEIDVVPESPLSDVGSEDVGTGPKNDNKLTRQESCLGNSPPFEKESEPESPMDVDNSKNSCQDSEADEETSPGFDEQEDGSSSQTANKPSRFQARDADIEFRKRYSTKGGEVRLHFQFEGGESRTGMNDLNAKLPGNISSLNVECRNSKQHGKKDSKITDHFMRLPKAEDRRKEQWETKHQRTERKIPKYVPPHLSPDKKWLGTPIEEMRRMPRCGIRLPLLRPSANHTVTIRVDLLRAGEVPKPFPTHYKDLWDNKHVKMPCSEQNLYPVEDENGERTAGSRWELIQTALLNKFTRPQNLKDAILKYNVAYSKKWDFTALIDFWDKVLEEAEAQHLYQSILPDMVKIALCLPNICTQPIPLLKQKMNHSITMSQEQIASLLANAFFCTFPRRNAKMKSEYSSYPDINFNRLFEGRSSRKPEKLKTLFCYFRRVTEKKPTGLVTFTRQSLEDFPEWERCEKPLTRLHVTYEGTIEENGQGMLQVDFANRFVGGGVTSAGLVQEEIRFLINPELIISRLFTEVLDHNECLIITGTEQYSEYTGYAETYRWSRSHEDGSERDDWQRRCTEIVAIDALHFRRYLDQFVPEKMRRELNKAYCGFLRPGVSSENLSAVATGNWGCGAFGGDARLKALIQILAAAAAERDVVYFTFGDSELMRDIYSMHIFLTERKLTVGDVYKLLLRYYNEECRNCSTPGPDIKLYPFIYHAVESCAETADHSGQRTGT

In general, IC50 refers to the point on the concentration scale where inhibition reaches its midpoint. Lower therefore signals greater potency. For the compound `COS(C)(=O)=O` [MMS, Methylmethanesulfonate], the half-maximal inhibitory concentration (IC50) with H1048 cells worked out at 9 µM; in the assay with control Hela cells, 16.5 µg/mL; in assay [3] it was 14.5 µM; in assay [4] it was 6.2 µg/mL. The “time of maximum nuclear PAR signal” value in assay [1] turned out to be 25 min. Also, the proliferation result with SW620 cells is “dose-dependent decrease”. The “time of peak of PAR chains after MMS addition” value in assay [2] is “approximately 20 min”.

Take `Cn1nnc2c(C(N)=O)ncn2c1=O` [TMZ, Temozolomide]: on PARG (one hour after TMZ alone), the PAR signal result is “no PAR signal detectable”.

Regarding `O=C(c1cc(Cc2n[nH]c(=O)c3ccccc23)ccc1F)N1CCN(C(=O)C2CC2)CC1` [olaparib], the PAR signal result at PARG (increasing concentrations of compound, 150 µg/mL temozolomide for 1 h) was “did not lead to any increase; also recorded: no effect”; on PARG (pre-treated at 300 nM, 1 h temozolomide 1.5-200 µg/mL), “no effect”.
